# Legend:
# [1] = tested on: Rattus norvegicus; experiment: Antihypertensive activity on spontaneously hypertensive rats when administered orally at a dose 50 mg/kg.; format: functional; conditions: route oral
# [2] = target: T1, Adrenergic receptor alpha-1 (Rattus norvegicus, UniProt P15823+P23944+P43140); experiment: Ability to displace [3H]prazosin from postsynaptic alpha-1 adrenergic receptor of rat in vitro.; format: protein assay
# T1 sequence (P15823 whole entry): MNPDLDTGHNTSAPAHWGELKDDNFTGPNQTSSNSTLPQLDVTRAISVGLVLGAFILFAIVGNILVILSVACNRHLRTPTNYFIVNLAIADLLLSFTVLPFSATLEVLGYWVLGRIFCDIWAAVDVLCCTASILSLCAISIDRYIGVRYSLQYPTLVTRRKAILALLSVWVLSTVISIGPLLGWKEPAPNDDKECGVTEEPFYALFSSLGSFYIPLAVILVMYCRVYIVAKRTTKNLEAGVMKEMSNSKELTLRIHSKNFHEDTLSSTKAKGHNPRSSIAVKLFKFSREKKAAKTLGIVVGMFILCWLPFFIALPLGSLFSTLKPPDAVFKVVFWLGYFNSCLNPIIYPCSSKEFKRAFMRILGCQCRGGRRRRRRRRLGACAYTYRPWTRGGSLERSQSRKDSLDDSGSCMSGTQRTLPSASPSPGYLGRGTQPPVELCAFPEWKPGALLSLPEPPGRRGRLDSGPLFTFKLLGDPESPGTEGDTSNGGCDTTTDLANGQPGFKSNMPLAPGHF
# T1 sequence (P23944 whole entry): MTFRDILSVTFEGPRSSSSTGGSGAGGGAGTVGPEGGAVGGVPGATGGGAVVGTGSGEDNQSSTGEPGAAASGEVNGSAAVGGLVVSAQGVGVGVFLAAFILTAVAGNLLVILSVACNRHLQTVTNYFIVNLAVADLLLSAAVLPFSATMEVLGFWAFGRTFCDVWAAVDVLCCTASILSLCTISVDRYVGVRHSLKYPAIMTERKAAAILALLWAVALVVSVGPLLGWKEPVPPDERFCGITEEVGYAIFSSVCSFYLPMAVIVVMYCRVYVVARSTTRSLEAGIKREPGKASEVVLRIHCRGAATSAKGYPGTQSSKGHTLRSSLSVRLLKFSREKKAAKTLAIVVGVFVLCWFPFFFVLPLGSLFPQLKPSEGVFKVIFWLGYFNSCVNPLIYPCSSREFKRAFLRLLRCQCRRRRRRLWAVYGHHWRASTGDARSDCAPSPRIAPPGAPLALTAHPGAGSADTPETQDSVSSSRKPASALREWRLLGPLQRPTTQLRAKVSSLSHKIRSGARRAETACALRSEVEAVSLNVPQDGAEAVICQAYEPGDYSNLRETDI
# T1 sequence (P43140 whole entry): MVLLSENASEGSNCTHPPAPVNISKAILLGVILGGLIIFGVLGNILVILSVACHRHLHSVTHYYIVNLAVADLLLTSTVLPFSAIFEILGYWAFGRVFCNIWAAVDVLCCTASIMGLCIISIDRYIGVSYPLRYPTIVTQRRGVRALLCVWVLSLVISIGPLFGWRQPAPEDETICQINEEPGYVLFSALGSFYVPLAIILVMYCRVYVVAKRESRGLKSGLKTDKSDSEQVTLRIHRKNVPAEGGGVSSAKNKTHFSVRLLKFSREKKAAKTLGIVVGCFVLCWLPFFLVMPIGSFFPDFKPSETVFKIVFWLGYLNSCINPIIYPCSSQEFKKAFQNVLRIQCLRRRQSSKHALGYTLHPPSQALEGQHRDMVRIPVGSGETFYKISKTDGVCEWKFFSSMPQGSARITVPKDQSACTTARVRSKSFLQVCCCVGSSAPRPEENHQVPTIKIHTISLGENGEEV
# [3] = tested on: Rattus norvegicus; experiment: Antihypertensive activity on spontaneously hypertensive rats, when administered intravenously at a dose 10 mg/kg; format: functional; conditions: route intravenous
# [4] = tested on: Rattus norvegicus; experiment: Antihypertensive activity on spontaneously hypertensive rats, when administered orally at a dose 20 mg/kg; format: functional; conditions: route oral
Compound,Delta p [1],Ki [2],Delta p [3],Delta p [4]
Fc1ccccc1-c1[nH]nc2c1CNCC2,0%,> 3000 nM,,
CN1CCc2c(c(-c3ccc(F)cc3)nn2CCc2ccccc2)C1,0%,40.3 nM,,
CCCCCCn1nc(-c2ccc(F)cc2)c2c1CCN(C)C2.CS(=O)(=O)O,-16%,15.2 nM,,
CCN1CCc2n[nH]c(-c3ccc(OC)cc3)c2C1,0%,> 3000 nM,,
CCCn1nc(-c2ccc(F)cc2)c2c1CCNC2.CS(=O)(=O)O,-33%,24.2 nM,,
CCN1CCc2n[nH]c(-c3ccc(C)cc3)c2C1.O=C(O)CC(=O)O,0%,350 nM,,
CN1CCc2n[nH]c(-c3ccccc3)c2C1.O=C(O)CC(O)(CC(=O)O)C(=O)O,0%,1300 nM,,
Clc1cccc(-c2[nH]nc3c2CNCC3)c1,0%,> 3000 nM,,
CS(=O)(=O)O.Fc1ccc(-c2nn(CCCc3ccccc3)c3c2CNCC3)cc1,,12.9 nM,-37%,
CC(c1ccccc1)n1nc(-c2ccc(F)cc2)c2c1CCNC2.CS(=O)(=O)O (stereo unspecified),,7.2 nM,,-15%
CCCCCn1nc(-c2ccc(F)cc2)c2c1CCNC2.CS(=O)(=O)O,,8.7 nM,,-20%
CN1CCc2c(c(-c3ccc(F)cc3)nn2-c2ccc(F)cc2)C1.CS(=O)(=O)O,,206 nM,,0%
CC(C)n1nc(-c2ccccc2)c2c1CCNC2,0%,1100 nM,,
COc1ccc(-c2[nH]nc3c2CNCC3)cc1OC,0%,> 3000 nM,,
Fc1cccc(-c2[nH]nc3c2CNCC3)c1,0%,> 3000 nM,,
CCn1nc(-c2ccc(F)cc2)c2c1CCN(Cc1ccccc1)C2.CS(=O)(=O)O,-23%,2020 nM,,
CCn1nc(-c2ccc(F)cc2)c2c1CCNC2.CS(=O)(=O)O,,32.5 nM,,-37%
Cn1nc(-c2ccc(F)cc2)c2c1CCNC2,0%,1060 nM,,
CC(C)N1CCc2c(c(-c3ccc(F)cc3)nn2Cc2ccccc2)C1,-20%,97.6 nM,,
COc1ccc(-c2[nH]nc3c2CNCC3)cc1,-15%,448 nM,,
N#Cc1ccc(-c2[nH]nc3c2CNCC3)cc1,0%,> 3000 nM,,
CCCCn1nc(-c2ccc(F)cc2)c2c1CCNC2.CS(=O)(=O)O,,17.3 nM,-30%,
CCN1CCc2n[nH]c(-c3ccc(F)cc3)c2C1.O=C(O)CC(=O)O,0%,3400 nM,,
CS(=O)(=O)O.Fc1ccc(-c2nn(CCc3ccccc3)c3c2CNCC3)cc1,-15%,40.3 nM,,

Compound,Delta p [1],Ki [2],Delta p [3],Delta p [4]
Cc1ccc(-c2[nH]nc3c2CN(C)CC3)cc1.Cc1ccc(S(=O)(=O)O)cc1,,249 nM,,0%
CN1CCc2n[nH]c(-c3ccc(Cl)cc3)c2C1.O=C(O)CC(O)(CC(=O)O)C(=O)O,0%,2000 nM,,
CN1CCc2n[nH]c(-c3ccc(F)cc3)c2C1,,507 nM,,0%
Cc1ccc(-c2[nH]nc3c2CNCC3)cc1.Cl.Cl,,92.2 nM,,0%
Cl.Cl.c1ccc(-c2[nH]nc3c2CNCC3)cc1,-18%,490 nM,,
CCCCn1nc(-c2ccc(F)cc2)c2c1CCN(C)C2.CS(=O)(=O)O,-18%,32.8 nM,,
CCCn1nc(-c2ccc(F)cc2)c2c1CCN(C)C2.CS(=O)(=O)O,-25%,73.5 nM,,
Fc1ccc(-c2[nH]nc3c2CNCC3)cc1,-37%,69.2 nM,,
CS(=O)(=O)O.Cn1nc(-c2ccccc2)c2c1CCNC2,0%,3290 nM,,
Cn1nc(-c2cccc(Cl)c2)c2c1CCNC2,0%,> 3000 nM,,
CC(C)n1nc(-c2ccccc2)c2c1CCN(C)C2.CS(=O)(=O)O,0%,2870 nM,,
Cn1nc(-c2cccc(F)c2)c2c1CCNC2,0%,> 3000 nM,,
CN1CCc2c(c(-c3ccc(F)cc3)nn2Cc2ccccc2)C1.CS(=O)(=O)O,-18%,21.2 nM,,
Cc1ccc(S(=O)(=O)O)cc1.Cn1nc(-c2ccccc2F)c2c1CCNC2,0%,> 3000 nM,,
CCCCCCn1nc(-c2ccc(F)cc2)c2c1CCNC2.CS(=O)(=O)O,0%,13 nM,,
CCCCCn1nc(-c2ccc(F)cc2)c2c1CCN(C)C2.CS(=O)(=O)O,,18.3 nM,,-21%
CCCCN1CCc2c(c(-c3ccc(F)cc3)nn2Cc2ccccc2)C1.Cl,-16%,119 nM,,
Cl.Fc1ccc(-c2nn(Cc3ccccc3)c3c2CN(C2CCCC2)CC3)cc1,-18%,42.4 nM,,
CCN1CCc2n[nH]c(-c3ccccc3)c2C1.Cl,0%,1500 nM,,
Cl.Fc1ccc(-c2nn(-c3ccc(F)cc3)c3c2CNCC3)cc1,,161 nM,,0%
CN1CCc2c(c(-c3ccc(F)cc3)nn2CCCc2ccccc2)C1.Cl,0%,20.6 nM,,
Cl.Cn1nc(-c2ccc(Cl)cc2)c2c1CCNC2,-26%,190 nM,,
Cl.O=[N+]([O-])c1ccc(-c2[nH]nc3c2CNCC3)cc1,0%,> 3000 nM,,
CC(c1ccccc1)n1nc(-c2ccc(F)cc2)c2c1CCN(C)C2.Cl (stereo unspecified),,8.1 nM,,-15%

# Source: ChEMBL document CHEMBL1122903, “Synthesis, in vitro [3H]prazosin displacement, and in vivo activity of 3-aryl-4,5,6,7-tetrahydropyrazolo[4,3-c]pyridines, a new class of antihypertensive agents” (J Med Chem, 1985)
